Laboratory results reported in patent publication EP2545915A1, “2-amino-2-oxoethyl trans-3-[5-(6-methoxy-naphtalen-1-yl)-1,3-dioxan-2-yl]propyl-carbamate for use in the treatment of persistent cancer pain” (SANOFI, priority 2011, dated 2013).
Where two headings read alike, the source gives them in different places.

System: UDP-glucuronosyl transferase
Assay type: in vitro ADME, human
Settings: for % Control (M3G Formation Activity) / % Control (M6G Formation Activity): morphine 2mM, HLM protein 0.5 mg/mL, 30 min
Protocol: Incubations were conducted in 2-mL polypropylene centrifuge tubes. Incubation mixtures containing HLM suspension and alamethicin (25 µg/mL) in 0.1 M potassium phosphate buffer (pH 7.4), were placed on wet ice for 5 min. […] Reactions were initiated by the addition of 50 mM UDPGA spiking solution. […] Samples were incubated aerobically in a water bath at 37 °C for the required amount of time and reactions terminated by the addition of 400 µL of the appropriate quench solution. The 2-mL centrifuge tubes were vortex mixed and stored in a -20 °C freezer for ca. 20 min prior to centrifugation at 13.3 × g, 4 °C for 10 min. Supernatants were analyzed by LC-MS/MS for morphine metabolites formation.
UGT-dependent activities were determined by monitoring the formation of enzyme specific metabolites from marker substrates. […] Incubation with selective inhibitors (positive control) was performed at a concentration above their established IC50 for the confirmation of enzyme activity and inhibitory effects.
Incubations were performed in 2-mL centrifuge tubes. Incubation mixtures containing HLM suspension and alamethicin (25 µg/mL) in 0.1 M potassium phosphate buffer (pH 7.4), were placed on wet ice for 5 min. […] Reactions were initiated by the addition of UDPGA. The final incubation mixture contained 0.5 mg/mL HLM, 2 mM MgCl2, 5 mM UDPGA, various concentration of Compound A or a selective inhibitor. Samples were incubated aerobically in a water bath at 37 °C for 30 min. The incubation systems were terminated by the addition of a 400-µL quenching solution. The 2-mL centrifuge tubes were vortex mixed and stored in a -20 °C freezer for approximately 20 min prior to centrifugation at 13.3 × g, 4 °C for 10 min. Supernatants were analyzed by LC-MS/MS.
Percent of Control = Cmet ÷ Ccontrol × 100%
Cmet: Concentration of the metabolite in the incubations in the presence of Compound A or selective inhibitor
Ccontrol: Concentration of the enzyme-specific metabolite in the incubations in the absence of Compound A and selective inhibitor
The IC50 for Compound A was estimated by non-linear regression analysis of individual sets of percent inhibition values using GraphPad Prism 5.

[1] = positive control incubation, same conditions (2 mM morphine, HLM 0.5 mg/mL, 30 min)

COc1ccc2c(cccc2[C@H]2CO[C@H](CCCNC(=O)OCC(N)=O)OC2)c1 [Compound A, 2-amino-2-oxoethyl trans-3-[5-(6-methoxy-naphtalen-1-yl)-1,3-dioxan-2-yl]propyl-carbamate]
IC50 (2 mM morphine in HLM, Compound A 0.5 to 250 µM, M3G and M6G formation monitored): could not be estimated | % Control (M3G Formation Activity) (Compound A 0.5 µM): 97.7% | % Control (M6G Formation Activity) (Compound A 0.5 µM): 96.9% | % Control (M3G Formation Activity) (Compound A 1.0 µM): 96.2% | % Control (M6G Formation Activity) (Compound A 1.0 µM): 94.4% | % Control (M3G Formation Activity) (Compound A 5.0 µM): 106.0% | % Control (M6G Formation Activity) (Compound A 5.0 µM): 102.4% | % Control (M3G Formation Activity) (Compound A 10 µM): 107.9% | % Control (M6G Formation Activity) (Compound A 10 µM): 110.4% | % Control (M3G Formation Activity) (Compound A 25 µM): 108.3% | % Control (M6G Formation Activity) (Compound A 25 µM): 105.8% | % Control (M3G Formation Activity) (Compound A 50 µM): 105.7% | % Control (M6G Formation Activity) (Compound A 50 µM): 108.3% | % Control (M3G Formation Activity) (Compound A 100 µM): 92.7% | % Control (M6G Formation Activity) (Compound A 100 µM): 97.4% | % Control (M3G Formation Activity) (Compound A 250 µM): 94.2% | % Control (M6G Formation Activity) (Compound A 250 µM): 96.5% | drug interaction with morphine (according to in vitro results): no significant drug interaction | inhibition of morphine metabolism (human liver microsomes, formation of morphine-3-glucuronide and morphine-6-glucuronide monitored): no inhibition

CC(=O)N1CCN(c2ccc(OCC3COC(Cn4ccnc4)(c4ccc(Cl)cc4Cl)O3)cc2)CC1 (stereo not drawn) [ketoconazole, reference compound]
inhibition to M3G activity [1]: ≥ 98.5% | inhibition to M6G activity [1]: ≥ 98.5%
